Reference: patent US9006191B2, “Silencing of polo-like kinase expression using interfering RNA” (Protiva Biotherapeutics, Inc., priority 2007, dated 2015)

System: HT29 cells
Test: HT29 cell viability assay (CellTiter-Blue)
Format: cell-based, human
Conditions: HT29 cells, SNALP-formulated siRNA at a range of siRNA concentrations, viability at 72 h relative to PBS
Experimental: (§1) Various PLK-1 siRNAs were formulated as SNALP (“2:40” SNALP formulation: 2% PEG-cDMA; 40% DLinDMA; 10% DSPC; and 48% cholesterol) and evaluated for their inhibitory effects on cell growth in vitro. HT29 (human colon adenocarcinoma) or Neuro2A (mouse neuroblastoma) cells were treated with various PLK-1 SNALP at a range of siRNA concentrations and their effect on cell viability was evaluated. Viability of cell cultures is expressed as % viability relative to PBS treated controls.
Additional PLK-1 siRNA molecules were formulated as SNALP (“2:40” SNALP formulation: 2% PEG-cDMA; 40% DLinDMA; 10% DSPC; and 48% cholesterol) and evaluated for their inhibitory effects on cell growth in vitro. HT29 or Neuro2A cells were plated in triplicate at 5000 cells/well and 2500 cells/well, respectively. PLK-1 SNALP dosages were as follows: 25 nM; 5 nM; and 1 nM. Cell viability analysis was performed at 72 hours following transfection. SNALP containing a non-targeting (GFP) siRNA were used as a negative control. […]
PLK-1 siRNA molecules containing 2′-O-methyl (2′OMe) nucleotides at selective positions within the double-stranded region of the siRNA duplex were formulated as SNALP (“2:40” SNALP formulation: 2% PEG-cDMA; 40% DLinDMA; 10% DSPC; and 48% cholesterol) and evaluated for their inhibitory effects on cell growth in vitro. HT29 cells were plated in triplicate at 5000 cells/well. Cell viability analysis was performed at 72 hours following transfection with a range of PLK-1 SNALP dosages. SNALP containing a non-targeting (GFP) siRNA were used as a negative control.
Cell viability assays. […] Cell viability analysis was performed at 72 hours following transfection with a range of PLK-1 SNALP dosages.

| Substance | cell viability / killing of human tumor cells |
| --- | --- |
| PLK1232: siRNA to human PLK-1, SEQ ID NO:23/24 (chain 1 UCAGCAAGUGGGUGGACUA; chain 2 UAGUCCACCCACUUGCUGA; listed as RNA, chemistry not given here) | effective at killing human tumor cells |
| PLK1242: siRNA to human PLK-1, SEQ ID NO:27/28 (chain 1 GGUGGACUAUUCGGACAAG; chain 2 CUUGUCCGAAUAGUCCACC; listed as RNA, chemistry not given here) | effective at killing human tumor cells |
| PLK773 G/GU: 2′OMe-modified PLK773 siRNA, SEQ ID NO:64/63 (chain 1 AGACCUACCUCCGGAUCAANN; chain 2 UUGAUCCGGAGGUAGGUCUNN; chain 1: 2'-O-methyl at 2, 13, other sugars, backbone and the base at N not given here; chain 2: 2'-O-methyl at 9, 12, 17, other sugars, backbone and the base at N not given here; 3' NN overhangs: dT or U ribonucleotide) | more potent than the unmodified PLK1424 sequence |
| PLK832: siRNA to human PLK-1, SEQ ID NO:13/14 (chain 1 GCCGCCUCCCUCAUCCAGA; chain 2 UCUGGAUGAGGGAGGCGGC; listed as RNA, chemistry not given here) | effective at killing human tumor cells |
| PLK1425 3/5: 2′OMe-modified PLK1425 siRNA, SEQ ID NO:67/68 (chain 1 GANCACCCUCCUNAAANAUNN; chain 2 AUAUUUAANGAGGGUGANCNN; 2'-OMe modifications, chemistry not fully specified) | more potent than the unmodified PLK1425 sequence |
| PLK694: siRNA to human PLK-1, SEQ ID NO:9/10 (chain 1 GUGGAUGUGUGGUCCAUUG; chain 2 CAAUGGACCACACAUCCAC; listed as RNA, chemistry not given here) | effective at killing human tumor cells |
| PLK1081: siRNA to human PLK-1, SEQ ID NO:17/18 (chain 1 CCAGUGGUUCGAGAGACAG; chain 2 CUGUCUCUCGAACCACUGG; listed as RNA, chemistry not given here) | inhibited the growth of human tumor cells, but at higher siRNA concentrations |
| PLK1556: siRNA to human PLK-1, SEQ ID NO:31/32 (chain 1 GCGCCAUCAUCCUGCACCU; chain 2 AGGUGCAGGAUGAUGGCGC; listed as RNA, chemistry not given here) | effective at killing human tumor cells |
| PLK772: siRNA to human PLK-1, SEQ ID NO:11/12 (chain 1 GAGACCUACCUCCGGAUCA; chain 2 UGAUCCGGAGGUAGGUCUC; listed as RNA, chemistry not given here) | effective at killing human tumor cells |
| PLK1229: siRNA to human PLK-1, SEQ ID NO:21/22 (chain 1 GGGUCAGCAAGUGGGUGGA; chain 2 UCCACCCACUUGCUGACCC; listed as RNA, chemistry not given here) | effective at killing human tumor cells |
| PLK1424 U4/GU: 2′OMe-modified PLK1424 siRNA, SEQ ID NO:57/54 (chain 1 AGANCACCCNCCUNAAANANN; chain 2 UAUUUAANGAGGGUGANCUNN; 2'-OMe modifications, further chemistry not given here) | as potent as the unmodified PLK1424 sequence |
| PLK1345: siRNA to human PLK-1, SEQ ID NO:29/30 (chain 1 GACAGCCUGCAGUACAUAG; chain 2 CUAUGUACUGCAGGCUGUC; listed as RNA, chemistry not given here) | inhibited the growth of human tumor cells, but at higher siRNA concentrations |
| PLK1424 U3/GU: 2′OMe-modified PLK1424 siRNA, SEQ ID NO:53/54 (chain 1 AGANCACCCNCCUNAAAUANN; chain 2 UAUUUAANGAGGGUGANCUNN; 2'-OMe modifications, further chemistry not given here) | as potent as the unmodified PLK1424 sequence |
| PLK1195: siRNA to human PLK-1, SEQ ID NO:19/20 (chain 1 GAGGCUGAGGAUCCUGCCU; chain 2 AGGCAGGAUCCUCAGCCUC; listed as RNA, chemistry not given here) | effective at killing human tumor cells |
| PLK1233: siRNA to human PLK-1, SEQ ID NO:25/26 (chain 1 CAGCAAGUGGGUGGACUAU; chain 2 AUAGUCCACCCACUUGCUG; listed as RNA, chemistry not given here) | effective at killing human tumor cells |

System: Neuro2A cells
Test: Neuro2A cell viability assay (CellTiter-Blue)
Format: cell-based
Conditions: mouse Neuro2A cells, SNALP-formulated siRNA, viability at 72 h relative to PBS
Experimental: as §1
Additional PLK-1 siRNA molecules were formulated as SNALP (“2:40” SNALP formulation: 2% PEG-cDMA; 40% DLinDMA; 10% DSPC; and 48% cholesterol) and evaluated for their inhibitory effects on cell growth in vitro. HT29 or Neuro2A cells were plated in triplicate at 5000 cells/well and 2500 cells/well, respectively. PLK-1 SNALP dosages were as follows: 25 nM; 5 nM; and 1 nM. Cell viability analysis was performed at 72 hours following transfection. SNALP containing a non-targeting (GFP) siRNA were used as a negative control.
Additional PLK-1 siRNA molecules were formulated as SNALP (“2:40” SNALP formulation: 2% PEG-cDMA; 40% DLinDMA; 10% DSPC; and 48% cholesterol) and evaluated for their inhibitory effects on cell growth in vitro. HT29 or Neuro2A cells were plated in triplicate at 5000 cells/well and 2500 cells/well, respectively. PLK-1 SNALP dosages were as follows: 30 nM; 10 nM; and 3.3 nM. Cell viability analysis was performed at 72 hours following transfection. SNALP containing a non-targeting (GFP) siRNA were used as a negative control.

| Substance | cell viability / inhibition of cell growth |
| --- | --- |
| PLK1232: siRNA to human PLK-1, SEQ ID NO:23/24 (chain 1 UCAGCAAGUGGGUGGACUA; chain 2 UAGUCCACCCACUUGCUGA; listed as RNA, chemistry not given here) | most potent human/mouse cross-reactive siRNA molecule |
| mPLK1424: siRNA to mouse PLK-1, SEQ ID NO:35/36 (chain 1 AGAUCACUCUCCUCAACUA; chain 2 UAGUUGAGGAGAGUGAUCU; listed as RNA, chemistry not given here) | most active mouse-specific siRNA sequences |
| mPLK1607: siRNA to mouse PLK-1, SEQ ID NO:43/44 (chain 1 AGGACCACACCAAACUUAU; chain 2 AUAAGUUUGGUGUGGUCCU; listed as RNA, chemistry not given here) | most active mouse-specific PLK-1 siRNA sequences |
| mPLK1668: siRNA to mouse PLK-1, SEQ ID NO:49/50 (chain 1 GAGGGACUUCCAAACGUAC; chain 2 GUACGUUUGGAAGUCCCUC; listed as RNA, chemistry not given here) | most active mouse-specific PLK-1 siRNA sequences |
| mPLK1608: siRNA to mouse PLK-1, SEQ ID NO:45/46 (chain 1 GGACCACACCAAACUUAUC; chain 2 GAUAAGUUUGGUGUGGUCC; listed as RNA, chemistry not given here) | most active mouse-specific PLK-1 siRNA sequences |
| PLK1229: siRNA to human PLK-1, SEQ ID NO:21/22 (chain 1 GGGUCAGCAAGUGGGUGGA; chain 2 UCCACCCACUUGCUGACCC; listed as RNA, chemistry not given here) | most potent human/mouse cross-reactive siRNA molecules |
| PLK1345: siRNA to human PLK-1, SEQ ID NO:29/30 (chain 1 GACAGCCUGCAGUACAUAG; chain 2 CUAUGUACUGCAGGCUGUC; listed as RNA, chemistry not given here) | effective at inhibiting the growth of mouse Neuro2A cells at higher siRNA concentrations |
| mPLK1425: siRNA to mouse PLK-1, SEQ ID NO:37/38 (chain 1 GAUCACUCUCCUCAACUAU; chain 2 AUAGUUGAGGAGAGUGAUC; listed as RNA, chemistry not given here) | most active mouse-specific siRNA sequences |

System: IFIT1 mRNA, serum IFNα
Test: In vivo immune stimulation assay in Balb/c mice (IFIT1 mRNA, serum IFNα)
Conditions: SNALP-formulated siRNA IV, 4-6 h

| Substance | serum IFNα / serum cytokine response |
| --- | --- |
| U(S)-ApoB1: ApoB-1 siRNA with 2′OMe-modified sense strand, SEQ ID NO:284/285 (sense GNCANCACACNGAANACCAAN; antisense AUUGGUAUUCAGUGUGAUGACAC; 2'-OMe on sense strand, chemistry not fully specified) | no measurable serum cytokine response |

Same assay, conditions: SNALP-formulated siRNA IV, 4 h

| Substance | IFIT1 mRNA induction in liver and spleen |
| --- | --- |
| U(S)-ApoB1: ApoB-1 siRNA with 2′OMe-modified sense strand, SEQ ID NO:284/285 (sense GNCANCACACNGAANACCAAN; antisense AUUGGUAUUCAGUGUGAUGACAC; 2'-OMe on sense strand, chemistry not fully specified) | induction of IFN-inducible p56 IFIT1 mRNA in the liver and spleen |
